Assay results reported in US11040962B2, “Pesticidally active pyrazole derivatives” (SYNGENTA PARTICIPATIONS AG, priority 2017, dated 2021).

Assays:
Assay type in all cases: in vivo
Tetranychus urticae = Tetranychus urticae (two-spotted spider mite) bean leaf disc spray test; conditions: foliar, 192 h, application rate 200 ppm, 8 days after infestation, read-out: mortality on mixed population (mobile stages)
Procedure: Tetranychus urticae (Two-Spotted Spider Mite):
Bean leaf discs on agar in 24-well microtiter plates were sprayed with aqueous test solutions prepared from 10′000 ppm DMSO stock solutions. After drying the leaf discs were infested with a mite population of mixed ages. The samples were assessed for mortality on mixed population (mobile stages) 8 days after infestation.

Spodoptera littoralis = Spodoptera littoralis (Egyptian cotton leaf worm) cotton leaf disc spray test; conditions: foliar, 72 h, application rate 200 ppm, L1 larvae, 3 days after infestation, vs untreated, read-out: control (at least one of mortality, anti-feedant effect, growth inhibition)
Procedure: Spodoptera littoralis (Egyptian Cotton Leaf Worm)
Cotton leaf discs were placed on agar in 24-well microtiter plates and sprayed with aqueous test solutions prepared from 10′000 ppm DMSO stock solutions. After drying the leaf discs were infested with five L1 larvae. The samples were assessed for mortality, anti-feedant effect, and growth inhibition in comparison to untreated samples 3 days after infestation. Control of Spodoptera littoralis by a test sample is when at least one of mortality, anti-feedant effect, and growth inhibition is higher than the untreated sample.

Thrips tabaci = Thrips tabaci (onion thrips) sunflower leaf disc spray test; conditions: foliar, 144 h, application rate 200 ppm, population of mixed ages, 6 days after infestation
Procedure: Thrips tabaci (Onion Thrips):
Sunflower leaf discs were placed on agar in 24-well microtiter plates and sprayed with aqueous test solutions prepared from 10′000 ppm DMSO stock solutions. After drying the leaf discs were infested with a Thrips population of mixed ages. The samples were assessed for mortality 6 days after infestation.

Diabrotica balteata = Diabrotica balteata (corn root worm) maize sprout spray test; conditions: 96 h, application rate 200 ppm, L2 larvae, 4 days after infestation, vs untreated, read-out: effect in at least one of the two categories (mortality or growth inhibition)
Procedure: Diabrotica balteata, (Corn Root Worm)
Maize sprouts, placed on an agar layer in 24-well microtiter plates were treated with aqueous test solutions prepared from 10′000 ppm DMSO stock solutions by spraying. After drying, the plates were infested with L2 larvae (6 to 10 per well). The samples were assessed for mortality and growth inhibition in comparison to untreated samples 4 days after infestation. The following compounds gave an effect of at least 80% in at least one of the two categories (mortality or growth inhibition) at an application rate of 200 ppm: 1, 2, 3, 4, 7, 8, 9, 11, 12, 13, 14, 15, 16, 17, 18, 19, 20, 21, 27, 28 and 29.

Plutella xylostella = Plutella xylostella (diamond back moth) artificial diet test; conditions: 120 h, application rate 200 ppm, L2 larvae, 5 days after infestation, vs untreated, read-out: effect in at least one of the two categories (mortality or growth inhibition)
Procedure: Plutella xylostella (Diamond Back Moth):
24-well microtiter plates with artificial diet were treated with aqueous test solutions prepared from 10′000 ppm DMSO stock solutions by pipetting. After drying, the plates were infested with L2 larvae (10 to 15 per well). The samples were assessed for mortality and growth inhibition in comparison to untreated samples 5 days after infestation. The following compounds gave an effect of at least 80% in at least one of the two categories (mortality or growth inhibition) at an application rate of 200 ppm: 1, 2, 3, 4, 7, 8, 9, 10, 11, 12, 13, 14, 15, 16, 17, 18, 19, 20, 21, 22, 23, 24, 26, 27, 28 and 29.

Euschistus heros = Euschistus heros (neotropical brown stink bug) soybean leaf spray test; conditions: 120 h, application rate 200 ppm, N2 nymphs, 5 days after infestation, vs untreated, read-out: effect in at least one of the two categories (mortality or growth inhibition)
Procedure: Euschistus heros (Neotropical Brown Stink Bug)
Soybean leaves on agar in 24-well microtiter plates were sprayed with aqueous test solutions prepared from 10′000 ppm DMSO stock solutions. After drying the leaves were infested with N2 nymphs. The samples were assessed for mortality and growth inhibition in comparison to untreated samples 5 days after infestation. The following compounds gave an effect of at least 80% in at least one of the two categories (mortality or growth inhibition) at an application rate of 200 ppm: 1, 2, 3, 7, 8, 9, 12, 13, 14, 15, 17, 18, 21, 25, 26, 27, 28 and 29.

CN(C(=O)c1cc(-c2cc(-c3c(C(F)(F)F)c(C(F)(F)C(F)(F)F)nn3C)no2)sc1C#N)C1(C#N)CC1 [Compound 17, 2-cyano-N-(1-cyanocyclopropyl)-N-methyl-5-[3-[2-methyl-5-(1,1,2,2,2-pentafluoroethyl)-4-(trifluoromethyl)pyrazol-3-yl]isoxazol-5-yl]thiophene-3-carboxamide]
≥ 80%: mortality at 200 ppm (Tetranychus urticae) | percent control (mortality, anti-feedant effect or growth inhibition) at 200 ppm (Spodoptera littoralis) | mortality at 200 ppm (Thrips tabaci) | percent effect (mortality or growth inhibition) at 200 ppm (Diabrotica balteata) | percent effect (mortality or growth inhibition) at 200 ppm (Plutella xylostella) | percent effect (mortality or growth inhibition) at 200 ppm (Euschistus heros)

CN(C(=O)c1cc(-c2cc(-c3c(C(F)(F)F)c(C(F)(F)C(F)(F)F)nn3C)no2)sc1Cl)C1(C#N)CC1 [Compound 23, 2-chloro-N-(1-cyanocyclopropyl)-N-methyl-5-[3-[2-methyl-5-(1,1,2,2,2-pentafluoroethyl)-4-(trifluoromethyl)pyrazol-3-yl]isoxazol-5-yl]thiophene-3-carboxamide]
≥ 80%: percent control (mortality, anti-feedant effect or growth inhibition) at 200 ppm (Spodoptera littoralis) | mortality at 200 ppm (Thrips tabaci) | percent effect (mortality or growth inhibition) at 200 ppm (Plutella xylostella)

Cn1nc(C(F)(F)C(F)(F)F)c(C(F)(F)F)c1-n1cc(-c2cc(C(=O)NC3(C#N)CC3)c(C#N)s2)nn1 [Compound 4, 2-cyano-N-(1-cyanocyclopropyl)-5-[1-[2-methyl-5-(1,1,2,2,2-pentafluoroethyl)-4-(trifluoromethyl)pyrazol-3-yl]triazol-4-yl]thiophene-3-carboxamide]
≥ 80%: mortality at 200 ppm (Tetranychus urticae) | percent control (mortality, anti-feedant effect or growth inhibition) at 200 ppm (Spodoptera littoralis) | mortality at 200 ppm (Thrips tabaci) | percent effect (mortality or growth inhibition) at 200 ppm (Diabrotica balteata) | percent effect (mortality or growth inhibition) at 200 ppm (Plutella xylostella)

CN(C(=O)c1cc(-c2cn(-c3c(C(F)(F)F)c(C(F)(F)C(F)(F)F)nn3C)nn2)sc1Cl)C1(C#N)CC1 [Compound 11, 2-chloro-N-(1-cyanocyclopropyl)-N-methyl-5-[1-[2-methyl-5-(1,1,2,2,2-pentafluoroethyl)-4-(trifluoromethyl)pyrazol-3-yl]triazol-4-yl]thiophene-3-carboxamide]
≥ 80%: percent control (mortality, anti-feedant effect or growth inhibition) at 200 ppm (Spodoptera littoralis) | mortality at 200 ppm (Thrips tabaci) | percent effect (mortality or growth inhibition) at 200 ppm (Diabrotica balteata) | percent effect (mortality or growth inhibition) at 200 ppm (Plutella xylostella)

CCN(C(=O)c1cc(-c2cn(-c3c(C(F)(F)F)c(C(F)(F)C(F)(F)F)nn3C)nn2)sc1Cl)C1(C#N)CC1 [Compound 12, 2-chloro-N-(1-cyanocyclopropyl)-N-ethyl-5-[1-[2-methyl-5-(1,1,2,2,2-pentafluoroethyl)-4-(trifluoromethyl)pyrazol-3-yl]triazol-4-yl]thiophene-3-carboxamide]
≥ 80%: percent control (mortality, anti-feedant effect or growth inhibition) at 200 ppm (Spodoptera littoralis) | mortality at 200 ppm (Thrips tabaci) | percent effect (mortality or growth inhibition) at 200 ppm (Diabrotica balteata) | percent effect (mortality or growth inhibition) at 200 ppm (Plutella xylostella) | percent effect (mortality or growth inhibition) at 200 ppm (Euschistus heros)

CCN(C(=O)c1cc(-c2cc(-c3c(C(F)(F)F)c(C(F)(F)C(F)(F)F)nn3C)no2)sc1Cl)C1CC1 [Compound 21, 2-chloro-N-cyclopropyl-N-ethyl-5-[3-[2-methyl-5-(1,1,2,2,2-pentafluoroethyl)-4-(trifluoromethyl)pyrazol-3-yl]isoxazol-5-yl]thiophene-3-carboxamide]
≥ 80%: percent control (mortality, anti-feedant effect or growth inhibition) at 200 ppm (Spodoptera littoralis) | percent effect (mortality or growth inhibition) at 200 ppm (Diabrotica balteata) | percent effect (mortality or growth inhibition) at 200 ppm (Plutella xylostella) | percent effect (mortality or growth inhibition) at 200 ppm (Euschistus heros)

CN(C(=O)c1cc(-c2cc(-c3c(C(F)(F)F)c(C(F)(F)C(F)(F)F)nn3C)no2)sc1Cl)C1CC1 [Compound 20, 2-chloro-N-cyclopropyl-N-methyl-5-[3-[2-methyl-5-(1,1,2,2,2-pentafluoroethyl)-4-(trifluoromethyl)pyrazol-3-yl]isoxazol-5-yl]thiophene-3-carboxamide]
≥ 80%: percent control (mortality, anti-feedant effect or growth inhibition) at 200 ppm (Spodoptera littoralis) | mortality at 200 ppm (Thrips tabaci) | percent effect (mortality or growth inhibition) at 200 ppm (Diabrotica balteata) | percent effect (mortality or growth inhibition) at 200 ppm (Plutella xylostella)

CCN(C(=O)c1cc(-c2cc(-c3c(C(F)(F)F)c(C(F)(F)C(F)(F)F)nn3C)no2)sc1Cl)C1(C#N)CC1 [Compound 24]
≥ 80%: percent control (mortality, anti-feedant effect or growth inhibition) at 200 ppm (Spodoptera littoralis) | mortality at 200 ppm (Thrips tabaci) | percent effect (mortality or growth inhibition) at 200 ppm (Plutella xylostella)

Cn1nc(C(F)(F)C(F)(F)F)c(C(F)(F)F)c1-c1cc(-c2cc(C(=O)NC3CC3)c(Cl)s2)on1 [Compound 19, 2-chloro-N-cyclopropyl-5-[3-[2-methyl-5-(1,1,2,2,2-pentafluoroethyl)-4-(trifluoromethyl)pyrazol-3-yl]isoxazol-5-yl]thiophene-3-carboxamide]
≥ 80%: percent control (mortality, anti-feedant effect or growth inhibition) at 200 ppm (Spodoptera littoralis) | percent effect (mortality or growth inhibition) at 200 ppm (Diabrotica balteata) | percent effect (mortality or growth inhibition) at 200 ppm (Plutella xylostella)

CCN(C(=O)c1cc(-c2cc(-c3c(C(F)(F)F)c(C(F)(F)C(F)(F)F)nn3C)no2)sc1C#N)C1(C#N)CC1 [Compound 18, 2-cyano-N-(1-cyanocyclopropyl)-N-ethyl-5-[3-[2-methyl-5-(1,1,2,2,2-pentafluoroethyl)-4-(trifluoromethyl)pyrazol-3-yl]isoxazol-5-yl]thiophene-3-carboxamide]
≥ 80%: percent control (mortality, anti-feedant effect or growth inhibition) at 200 ppm (Spodoptera littoralis) | mortality at 200 ppm (Thrips tabaci) | percent effect (mortality or growth inhibition) at 200 ppm (Diabrotica balteata) | percent effect (mortality or growth inhibition) at 200 ppm (Plutella xylostella) | percent effect (mortality or growth inhibition) at 200 ppm (Euschistus heros)

Cn1nc(C(F)(F)C(F)(F)F)c(C(F)(F)F)c1-c1cc(-c2cc(C(=O)NC3(C#N)CC3)c(C#N)s2)on1 [Compound 16, 2-cyano-N-(1-cyanocyclopropyl)-5-[3-[2-methyl-5-(1,1,2,2,2-pentafluoroethyl)-4-(trifluoromethyl)pyrazol-3-yl]isoxazol-5-yl]thiophene-3-carboxamide]
≥ 80%: mortality at 200 ppm (Tetranychus urticae) | percent control (mortality, anti-feedant effect or growth inhibition) at 200 ppm (Spodoptera littoralis) | mortality at 200 ppm (Thrips tabaci) | percent effect (mortality or growth inhibition) at 200 ppm (Diabrotica balteata) | percent effect (mortality or growth inhibition) at 200 ppm (Plutella xylostella)

Cn1nc(C(F)(F)C(F)(F)F)c(C(F)(F)F)c1-n1cc(-c2cc(C(=O)NC3(C#N)CC3)c(Cl)s2)nn1 [Compound 10, 2-chloro-N-(1-cyanocyclopropyl)-5-[1-[2-methyl-5-(1,1,2,2,2-pentafluoroethyl)-4-(trifluoromethyl)pyrazol-3-yl]triazol-4-yl]thiophene-3-carboxamide]
≥ 80%: percent control (mortality, anti-feedant effect or growth inhibition) at 200 ppm (Spodoptera littoralis) | mortality at 200 ppm (Thrips tabaci) | percent effect (mortality or growth inhibition) at 200 ppm (Plutella xylostella)

Cn1nc(C(F)(F)C(F)(F)F)c(C(F)(F)F)c1-c1cc(-c2cc(C(=O)NC3CC3)c(C#N)s2)cs1 [Compound 25, 2-cyano-N-cyclopropyl-5-[5-[2-methyl-5-(1,1,2,2,2-pentafluoroethyl)-4-(trifluoromethyl)pyrazol-3-yl]-3-thienyl]thiophene-3-carboxamide]
≥ 80%: mortality at 200 ppm (Tetranychus urticae) | percent effect (mortality or growth inhibition) at 200 ppm (Euschistus heros)

Cn1nc(C(F)(F)C(F)(F)F)c(C(F)(F)F)c1-c1cc(-c2cc(C(=O)NC3(C#N)CC3)c(Cl)s2)on1 [Compound 22, 2-chloro-N-(1-cyanocyclopropyl)-5-[3-[2-methyl-5-(1,1,2,2,2-pentafluoroethyl)-4-(trifluoromethyl)pyrazol-3-yl]isoxazol-5-yl]thiophene-3-carboxamide]
≥ 80%: percent effect (mortality or growth inhibition) at 200 ppm (Plutella xylostella)
